Patent publication US8778984B2, “Aldosterone synthase inhibitor” (Eli Lilly and Company, priority 2011, dated 2014)
Each block holds one molecule with its values, some of them ahead of it.

Legend:
[1] = target: T1, human cyp11B2 (Homo sapiens, UniProt P19099); test: Aldosterone Synthase Inhibitor Assay (V79-hcyp11B2 cells, aldosterone by LC-MS); assay type: cell-based; conditions: aldosterone production from 1 μM DOC, 24 hours incubation, geometric means, separate experiments
T1 construct: expressed in transfected cells
T1 sequence (P19099 25-503): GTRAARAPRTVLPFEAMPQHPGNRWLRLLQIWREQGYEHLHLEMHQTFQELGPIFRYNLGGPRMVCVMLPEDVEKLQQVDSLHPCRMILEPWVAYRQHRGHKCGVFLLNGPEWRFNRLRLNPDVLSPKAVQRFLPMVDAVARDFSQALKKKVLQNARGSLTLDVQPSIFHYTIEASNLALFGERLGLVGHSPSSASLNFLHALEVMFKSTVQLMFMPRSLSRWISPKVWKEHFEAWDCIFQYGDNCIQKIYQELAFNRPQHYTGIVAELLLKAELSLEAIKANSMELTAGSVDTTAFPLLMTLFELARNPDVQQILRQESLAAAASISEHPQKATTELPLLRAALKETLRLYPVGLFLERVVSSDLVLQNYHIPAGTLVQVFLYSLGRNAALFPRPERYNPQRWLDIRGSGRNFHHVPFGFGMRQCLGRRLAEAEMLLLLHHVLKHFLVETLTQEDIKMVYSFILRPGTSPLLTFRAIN
Experimental: Chinese hamster fibroblast cells (V79, ATCC™) constitutively expressing human cyp11B2 are established by transfection with a mammalian expression vector harboring the human cyp11B2 cDNA under CMV promoter and a neomycin antibiotic resistant gene for selection in mammalian cells. V79 cells are transfected in T225 cm^2 flasks with the lipofectamine transfection reagent and the human cyp11B2 cDNA. Positive clones are selected with the selection antibiotic geneticin at 1 mg/mL.
Aldosterone production from transfected cells is initiated by the addition of 1 μM DOC in the medium. After 24 hours incubation, 100 μL cell culture medium is collected and aldosterone concentration in the medium is determined using a liquid chromatography-mass spectrometry (LC-MS) method. […] The wells are then extracted 3× with EtOAc (150 μl) using the FX, combining the organic layers in a new 96-well plate. The solvent is dried in a GeneVac HT-4 or under nitrogen. […] A 25 μl aliquot of the sample is injected and a gradient from 20-100% ACN+0.1% formic acid (FA) in 1 min is initiated. Aldosterone elutes at 0.7 min. Starting conditions are held for 1 minute to re-equilibrate the column. An ABI 4000 tandem mass spectrometer is used for MS/MS analysis in the negative ion mode. […] The area under the peak from each transition is added together to comprise the signal from aldosterone and IS, respectively. […] The detection limit for aldosterone is […].
DOC and various concentrations of test compounds in 1:3 dilution increments are added to the cell culture medium. After 24 hours incubation, 100 μl of cell medium are collected and aldosterone concentration determined as described above. Data are fit to a 4 parameter-fit logistics curve to determine IC50 values.

[2] = tested on: aldosterone production in rats; test: Inhibition of Aldosterone Synthase in Rats (rat sodium-deficiency diet model); assay type: in vivo; conditions: Example 1 10.0 mg/kg, Example 49 30.0 mg/kg, Fadrozole 1.0 mg/kg
Experimental: The effect of compounds on aldosterone production in rats is assessed using the rat sodium-deficiency diet model. […] At 3 hours post dose rats are bled (˜0.5 mL) from the ocular orbit under isoflurane anesthesia. At 6 hours post-dose the rats are euthanized with CO2 and bled by cardiac puncture. Blood samples are clotted at least 30 minutes and serum is prepared and stored at approximately −80° C. until assayed. Aldosterone, steroids, and compound exposure are analyzed by mass spectroscopy.

[3] = tested on: estradiol production from H295R cells; test: cells; assay type: cell-based, human; conditions: Homo sapiens, NCI-H295R, 48 h, read-out: Estradiol IC50 (μM)
Experimental: (§1) The human adrenocarcinoma cell line H295R is used to monitor the production of testosterone and estradiol in vitro. […] Various concentrations of test compounds in 1:3 dilution increments are added to the cell culture medium. After incubation for 48 hours, 100 μl culture medium is collected and d5-estradiol and d3-testosterone are added as ISs for estradiol and testosterone respectively.
(§2) An equal volume of sodium carbonate/sodium bicarbonate buffer (0.5 mol/L, pH 9.4) is added to the samples followed by freshly prepared dansyl chloride solution (50 μl, 20 mg/mL). Samples are mixed and incubated for 60 min at 60° C. The samples are then extracted 3× with EtOAc ([…]) using the FX, combining the organic layers in a new deep-well 96-well plate. The solvent is then dried in a GeneVac HT-4 or under nitrogen. The FX is used to reconstitute the samples in 50% MeOH/water ([…]) and the plates are heat-sealed.
(§3) A 40 μl aliquot of the sample is injected and a gradient from 20-100% MeOH in 0.95 min is initiated. An ABI QTRAP 4000 tandem mass spectrometer is used for MS/MS analysis in the positive ion mode. […] These peaks are separately integrated to give the peak areas. The area ratios of testosterone/IS and estradiol/IS are used to determine testosterone and estradiol concentrations by comparison to their respective standard curves. The detection limits for testosterone and estradiol are 0.1 ng/mL and 0.01 ng/mL respectively.

[4] = tested on: testosterone production from H295R cells; test: cells; assay type: cell-based, human; conditions: Homo sapiens, NCI-H295R, 48 h, read-out: Testosterone IC50 (μM)
Experimental: as §1, §2, §3

Compound: N#Cc1ccc(C2CCCc3cncn32)cc1 (stereo not drawn) [Fadrozole, fadrozole, reference compound]
- % Inhibition 3 hrs ([2]; inhibition of aldosterone vs vehicle, 3 hrs post oral dose): 64.4%
- % Inhibition 6 hrs ([2]; inhibition of aldosterone vs vehicle, 6 hrs post oral dose): 55.2%
- Aldosterone (pg/mL) 3 hrs ([2]; serum, 3 hrs post oral dose, rat Na-deficient diet model): 669.8 pg/mL
- Aldosterone (pg/mL) 6 hrs ([2]; serum, 6 hrs post oral dose, rat Na-deficient diet model): 1144.2 pg/mL

Compound: N#Cc1ccc([C@H]2CCc3cncn32)c(F)c1 [Novartis LCI699, reference compound]
- IC50 [3]: 0.123 µM
- IC50 [4]: 5.01 µM

The remaining lines, values ahead:

- IC50 [1]: 157 nM
Compound: FC(F)(F)c1ccc(C2CCc3[nH]ncc32)cc1 (racemic) [Example 18, (+/−)-4-(4-Trifluoro-methylphenyl)-1,4,5,6-tetrahydrocyclopenta[c] pyrazole]

- IC50 [1]: 5 nM
Compound: N#Cc1ccc(C2CCCc3[nH]ncc32)cc1F (racemic) [Example 59, (+/−)-2-Fluoro-4-(4,5,6,7-tetrahydro-1H-indazol-4-yl)benzonitrile]

- IC50 [1]: 154 nM
Compound: Cc1ccc(C2CCCc3n[nH]cc32)cc1 (single isomer, unassigned; isomer 2) [Example 54, 4-(p-Tolyl)-4,5,6,7-tetrahydro-2H-indazole-isomer 2]
